Experimental data as given in patent US11725004B2, “(Cyano-dimethyl-methyl)-isoxazoles and -[1,3,4]thiadiazoles” (Centrexion Therapeutics Corporation, priority 2013, dated 2023).

Target: human CB1R (Homo sapiens (Human), UniProt P21554)
Assay: CB1 cAMP (Assay 2): in vitro testing of CB1 potency
Format: cell-based
Conditions: CHO cells expressing human CB1R; inhibition of forskolin-stimulated cAMP

human CB1R, sequence (P21554 whole entry): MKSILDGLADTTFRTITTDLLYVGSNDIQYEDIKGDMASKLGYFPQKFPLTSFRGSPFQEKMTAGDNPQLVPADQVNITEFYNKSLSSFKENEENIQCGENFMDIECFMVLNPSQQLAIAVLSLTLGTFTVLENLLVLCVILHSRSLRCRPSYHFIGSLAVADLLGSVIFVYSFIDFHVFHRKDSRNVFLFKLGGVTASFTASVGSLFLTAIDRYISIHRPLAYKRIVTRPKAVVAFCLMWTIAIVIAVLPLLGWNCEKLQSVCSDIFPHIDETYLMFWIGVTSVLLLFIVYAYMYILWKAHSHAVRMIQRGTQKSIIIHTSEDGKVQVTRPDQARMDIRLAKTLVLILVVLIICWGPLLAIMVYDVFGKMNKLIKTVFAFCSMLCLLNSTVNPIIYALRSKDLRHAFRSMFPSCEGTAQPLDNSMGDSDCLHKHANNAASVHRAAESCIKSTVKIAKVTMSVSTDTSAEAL

Compound	IC50
CN(C1CCN(S(C)(=O)=O)CC1)C(C)(C)C(=O)Nc1nnc(C(C)(C)C#N)s1 [Example 8]	69 µM
CN(CC1CCOCC1)C(C)(C)C(=O)Nc1cc(C(C)(C)CO)no1 [Example 7 in WO2010147792]	8.08 µM
CC(C)(CO)c1cc(NC(=O)C(C)(C)S(=O)(=O)CCCC(F)(F)F)on1 [Example 7 in WO2010036630]	28 µM
CN(CC1CCOCC1)C(C)(C)C(=O)Nc1cc(C(C)(C)C#N)no1 [Example 4]	39.4 µM
CC(C)(O)c1cc(NC(=O)C(C)(C)S(=O)(=O)C2CCOCC2)on1 [Example 133 WO2010036630]	> 200 µM
CC(C)(CO)c1cc(NC(=O)C(C)(C)S(=O)(=O)CC2CCOCC2)on1 [Example 1 in WO2010036630]	> 50 µM
CN(CC1CCOCC1)C(C)(C)C(=O)Nc1nnc(C(C)(C)C#N)s1 [Example 7, N-[5-(Cyano-dimethyl-methyl)-[1,3,4]thiadiazol-2-yl]-2-methyl-2-[methyl-(tetrahydro-pyran-4-ylmethyl)-amino]-propionamide]	> 200 µM
CN(C1CCN(S(C)(=O)=O)CC1)C(C)(C)C(=O)Nc1cc(C(C)(C)CO)no1 [Example 47 in WO2010147792]	3.1 µM
COCC(C)(C)c1cc(NC(=O)C(C)(C)S(=O)(=O)CC2CCOCC2)on1 [Example 17 in WO2010036630]	8.6 µM
CC(C)(C#N)c1cc(NC(=O)C(C)(C)S(=O)(=O)CC2CCOCC2)on1 [Example 2, N-[3-(Cyano-dimethyl-methyl)-isoxazol-5-yl]-2-methyl-2-(tetrahydro-pyran-4-ylmethanesulfonyl)-propionamide]	> 200 µM
CC(C)(C#N)c1cc(NC(=O)C(C)(C)S(=O)(=O)CCCC(F)(F)F)on1 [Example 1, N-[3-(Cyano-dimethyl-methyl)-isoxazol-5-yl]-2-methyl-2-(4,4,4-trifluoro-butane-1-sulfonyl)-propionamide]	104 µM
CC(C)(O)c1cc(NC(=O)C(C)(C)S(=O)(=O)CCCC(F)(F)F)on1 [Example 134 in WO2010036630]	26 µM
CC(C)(CO)c1cc(NC(=O)C(C)(C)S(=O)(=O)C2CCOCC2)on1 [Example 2 in WO2010036630]	150 µM
COCC(C)(C)c1cc(NC(=O)C(C)(C)N(C)CC2CCOCC2)on1 [Example 46 in WO2010147792]	0.923 µM
CC(C)(C#N)c1cc(NC(=O)C(C)(C)S(=O)(=O)C2CCOCC2)on1 [Example 3]	> 200 µM
CN(CC1CCOCC1)C(C)(C)C(=O)Nc1nnc(C(C)(C)CO)s1 [Example 30 in WO2010147792]	120 µM
COCC(C)(C)c1cc(NC(=O)C(C)(C)S(=O)(=O)C2CCOCC2)on1 [Example 38 in WO2010036630]	50 µM
CN(C1CCN(S(C)(=O)=O)CC1)C(C)(C)C(=O)Nc1cc(C(C)(C)C#N)no1 [Example 5]	2.5 µM
